# Assays:
# HaCaT keratinocytes = test: Reactive oxygen species assay by FACS (carboxy-H2DCFDA), UV filtering and antioxidant effect, Example 16; format: cell-based, human; details: for ROS production compared to irradiated control: 20J/cm^2 of SSR, n=5, p<0.0001
# Procedure: DNA damage was then measured using the comet assay and IHC-IF looking at the specific DNA lesions of cyclobutane pyrimidine dimers (CPD) and 8-oxoGua. A percentage reduction in general and specific DNA damage was then determined by comparing cells irradiated with and without sunscreen compositions. Antioxidant ability was detected using H2DCFDA, which fluoresces when reacting with ROS with the addition of palythine post exposure. SSR induced gene expression covering a range of different markers (inflammation, photoageing, oxidative damage) was assessed using qPCR. The ability of palythine to reduce this gene expression was then assessed.
# All assays were performed on HaCat cells grown as a 70-80 % confluent monolayer in multiwell plates. They were washed three times in PBS and covered with palythine dissolved in PBS at differing concentrations (0, 0.1, 0.3 %, 4 % and 10 % w/v). The cells were then irradiated with either SSR or UVA radiation (5-20 J/cm^2 or 20 J/cm^2 respectively). After irradiation the palythine solution was removed and the cells washed a further three times and replaced in media or processed immediately depending on the experimental design.
# HaCat cells were irradiated as above or for the anti-oxidant studies, cells were also incubated with palythine post irradiation. Cells were then incubated with 10uM carboxy-H2DCFDA (Invitrogen, UK) in PBS for 30 mins in the dark at 37 °C, 5 % CO2. Cells were washed in PBS, trypsinised for 10 minutes at 37 °C, centrifuged at 1200 rpm for 5 minutes at room temperature and resuspended in PBS and counterstained with DAPI for analysis by FACS. This was carried out with a Becton Dickinson FACSAria II. Cells were gated to only analyse live cells (DAPI negative) and the average mean green intensity per condition was then plotted from at least 10,000 measured events. Analysis was carried out using FlowJo 8.7 (USA).
# [1] = Photostability under increasing doses of solar simulated radiation (absorbance); format: physicochemical
# Procedure: palythine was extracted from the red algae Palmaria decipiens using a methanol extraction (Confirmed by HPLC & LC-MS). The absorbance profile was determined and then the extract was exposed to increasing doses of solar simulated radiation (SSR) from a solar simulator (conforming to COLIPA standards). The absorbance profile was measured to determine photostability. Compositions according to the invention (in this example solutions of palythine) were prepared at different palythine concentrations (0.3% to 10%), as well as controls comprising 0% palythine, and HaCat keratinocytes were irradiated with SSR or UVA radiation through the solutions, which were placed on top of the cells.
# Palythine was exposed to increasing doses of solar simulated radiation and absorbance measured. The absorbance spectrum of the palythine was measured between 280-400 nm using a Spectra Max 384 Plus (Molecular Devices; California, USA) spectrophotometer. Referring to figure 18, we show the photostability of palythine after exposure to increasing doses of solar simulated radiation. Palythine (0.0001% w/v palythine extracted from red algae Chondrus yendoi in PBS) was exposed to increasing doses of solar simulated radiation and the absorbance was measured to determine photostability.
structure (smiles),measurement,setting,value
COC1=C(NCC(=O)O)CC(O)(CO)CC1=N (centres unmarked) [palythine],ROS production compared to irradiated control,HaCaT keratinocytes; 10% palythine post exposure (anti-oxidant),significant reduction
same,ROS production compared to irradiated control,HaCaT keratinocytes; palythine 0.3-10%w/v added pre exposure,significant reduction
same,ROS production due to SSR irradiation (anti-oxidant properties),"HaCaT keratinocytes; Example 14, H2DCFDA, addition of palythine post exposure, p=<0.05",significant reduction
same,photostability,"[1]; after 40SED of solar simulated radiation, 0.0001% w/v palythine from Chondrus yendoi in PBS, absorbance 280-400 nm",extremely photostable with negligible photodegradation
same,photostability,"[1]; after 60 standard erythema doses (SED) of SSR, palythine from Palmaria decipiens",extremely photostable

# From patent publication EP3324923B1, “COMPOSITIONS AND METHODS USING PALYTHINE” (King's College London, priority 2015, dated 2017)
